Reference: US12344597B2, “Alkoxy-substituted pyridinyl derivatives as LPA1 receptor antagonists and their use in the treatment of fibrosis” (IDORSIA PHARMACEUTICALS LTD, priority 2018, dated 2025)

molecular target: human LPA1 receptor (Homo sapiens (Human), UniProt Q92633); assay: Beta-arrestin recruitment assay to determine IC50 values for human LPAR1; type: cell-based; settings: antagonist mode, Tango EDG2-bla U2OS cells, LPA 18:1 500 nM final
In short: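 Tango EDG2-bla U2OS cells: LPA-driven beta-arrestin/TEV protease recruitment releases Gal4-VP16, inducing beta-lactamase reporter read with live-cell substrate. Cells seeded 20 h at 37 °C beforehand. IC50 is antagonist concentration inhibiting 50% of maximal response.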

Sequence of human LPA1 receptor (Q92633 whole entry, the tested form may be a part): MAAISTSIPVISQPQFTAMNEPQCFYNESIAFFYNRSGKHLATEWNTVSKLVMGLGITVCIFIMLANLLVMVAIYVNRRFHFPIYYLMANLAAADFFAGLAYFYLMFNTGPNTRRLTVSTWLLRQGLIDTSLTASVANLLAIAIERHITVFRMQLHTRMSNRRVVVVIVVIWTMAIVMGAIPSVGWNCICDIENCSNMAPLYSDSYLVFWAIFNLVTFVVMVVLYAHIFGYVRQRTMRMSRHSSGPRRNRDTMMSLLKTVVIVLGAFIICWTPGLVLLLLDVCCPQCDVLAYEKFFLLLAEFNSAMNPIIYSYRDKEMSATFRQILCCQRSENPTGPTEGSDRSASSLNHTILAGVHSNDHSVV

Compound	IC50 [nM]
N-(2-(difluoromethoxy)-6-methylpyridin-3-yl)-1-(2-(1-(2-hydroxyethyl)piperidin-4-yl)acetyl)-3-(2-isopropylphenyl)azetidine-3-carboxamide [Ex 12-140]	122
COC(=O)CCCCS(=O)(=O)N1CC(C(=O)Nc2ccc(C)nc2OC(F)F)(c2ccccc2C(C)C)C1 [Ex 13-18, methyl 5-((3-((2-(difluoromethoxy)-6-methylpyridin-3-yl)carbamoyl)-3-(2-isopropylphenyl)azetidin-1-yl)sulfonyl)pentanoate]	72
CC(C)c1cccnc1C1(C(=O)Nc2ncc(Cl)cc2OC(F)F)CNC1 [Ex 77, N-(5-chloro-3-(difluoromethoxy)pyridin-2-yl)-3-(3-isopropylpyridin-2-yl)azetidine-3-carboxamide]	1030
COCCN(CC(=O)O)CC(=O)N1CC(C(=O)Nc2ccc(C)nc2OC(F)F)(c2ccccc2C(C)C)C1 [Ex 55]	44
COC(=O)C1(CN2CC(C(=O)Nc3ccc(C)nc3OC(F)F)(c3ccccc3C(C)C)C2)COC1 [Ex 11-90, methyl 3-((3-((2-(difluoromethoxy)-6-methylpyridin-3-yl)carbamoyl)-3-(2-isopropylphenyl)azetidin-1-yl)methyl)oxetane-3-carboxylate]	45
Cc1cnc(NC(=O)C2(c3ccccc3C(C)C)CN(S(=O)(=O)CCC(=O)O)C2)c(OC(F)F)c1 [Ex 80-2, 3-((3-((3-(difluoromethoxy)-5-methylpyridin-2-yl)carbamoyl)-3-(2-isopropylphenyl)azetidin-1-yl)sulfonyl)propanoic acid]	110
CCNCCN1CC(C(=O)Nc2ccc(C)nc2OC(F)F)(c2ccccc2C(C)C)C1 [Ex 11-63, N-(2-(difluoromethoxy)-6-methylpyridin-3-yl)-1-(2-(ethylamino)ethyl)-3-(2-isopropylphenyl)azetidine-3-carboxamide]	92
Cc1ccc(NC(=O)C2(c3ccccc3C(C)C)CN(CCCC(C)(C)[N+](=O)[O-])C2)c(OC(F)F)n1 [Ex 11-61, N-(2-(difluoromethoxy)-6-methylpyridin-3-yl)-3-(2-isopropylphenyl)-1-(4-methyl-4-nitropentyl)azetidine-3-carboxamide]	39
Cc1ccc(NC(=O)C2(c3ccccc3C(C)C)CN(C(=O)[C@@H]3CCC[C@H](C(=O)O)C3)C2)c(OC(F)F)n1 [Ex 51, (1S,3R)-3-(3-((2-(difluoromethoxy)-6-methylpyridin-3-yl)carbamoyl)-3-(2-isopropylphenyl)azetidine-1-carbonyl)cyclohexane-1-carboxylic acid]	80
Cc1cnc(NC(=O)C2(c3ccccc3C(C)C)CN(S(=O)(=O)CCC(=O)OCc3ccccc3)C2)c(OC(F)F)c1 [Ex 80-1, benzyl 3-((3-((3-(difluoromethoxy)-5-methylpyridin-2-yl)carbamoyl)-3-(2-isopropylphenyl)azetidin-1-yl)sulfonyl)propanoate]	55
Cc1ccc(NC(=O)C2(c3ccccc3C(C)C)CN(Cc3cnc(C(=O)O)cn3)C2)c(OC(F)F)n1 [Ex 11-55, 5-((3-((2-(difluoromethoxy)-6-methylpyridin-3-yl)-carbamoyl)3-(2-isopropylphenyl)azetidin-1-yl)methyl)pyrazine-2-carboxylic acid]	142
COc1nc(C)ccc1NC(=O)C1(c2ccccc2C(C)C)CN(C(=O)CCC(=O)O)C1 [Ex 12-62, 4-(3-(2-isopropylphenyl)-3-((2-methoxy-6-methylpyridin-3-yl)carbamoyl)azetidin-1-yl)-4-oxobutanoic acid]	65
1-((3-((3-(difluoromethoxy)-5-methylpyridin-2-yl)carbamoyl)-3-(2-isopropylphenyl)azetidine-1-carbonyl)oxy)cyclopropane-1-carboxylic acid [Ex 83-3]	76

Now those with a lower IC50, led by results:

IC50 [nM]	Compound
30	COC(=O)c1cnc(N2CC(C(=O)Nc3ccc(C)nc3OC(F)F)(c3ccccc3C(C)C)C2)n1C [Ex 18-35, methyl 2-(3-((2-(difluoromethoxy)-6-methylpyridin-3-yl)carbamoyl)-3-(2-isopropylphenyl)azetidin-1-yl)-1-methyl-1H-imidazole-5-carboxylate]
27	Cc1ccc(NC(=O)C2(c3ccccc3C(C)C)CN(C(=O)CC(C)C(=O)O)C2)c(OC(F)F)n1 (centres unmarked) [Ex 12-78, 4-(3-((2-(difluoromethoxy)-6-methylpyridin-3-yl)carbamoyl)-3-(2-isopropylphenyl)azetidin-1-yl)-2-methyl-4-oxobutanoic acid]
26	Cc1ccc(NC(=O)C2(c3ccccc3C(C)C)CN(C(=O)CC3(C(=O)O)COC3)C2)c(OC(F)F)n1 [Ex 12-98, 3-(2-(3-((2-(difluoromethoxy)-6-methylpyridin-3-yl)carbamoyl)-3-(2-isopropylphenyl)azetidin-1-yl)-2-oxoethyl)oxetane-3-carboxylic acid]
19	Cc1ccc(NC(=O)C2(c3ccccc3C(C)C)CN(C(=O)C3(C(=O)O)CC3)C2)c(OC(F)F)n1 [Ex 12-64, 1-(3-((2-(difluoromethoxy)-6-methylpyridin-3-yl)carbamoyl)-3-(2-isopropylphenyl)azetidine-1-carbonyl)cyclopropane-1-carboxylic acid]
19	Cc1ccc(NC(=O)C2(c3ccccc3C(C)C)CN(C(=O)CCC(C)(C)C(=O)O)C2)c(OC(F)F)n1 [Ex 12-103, 5-(3-((2-(difluoromethoxy)-6-methylpyridin-3-yl)carbamoyl)-3-(2-isopropylphenyl)azetidin-1-yl)-2,2-dimethyl-5-oxopentanoic acid]
15	Cc1ccc(NC(=O)C2(c3ccccc3C(C)C)CN(C(=O)CC3(C(=O)O)CCOCC3)C2)c(OC(F)F)n1 [Ex 12-122, 4-(2-(3-((2-(difluoromethoxy)-6-methylpyridin-3-yl)carbamoyl)-3-(2-isopropylphenyl)azetidin-1-yl)-2-oxoethyl)tetrahydro-2H-pyran-4-carboxylic acid]
14	Cc1ccc(NC(=O)C2(c3ccccc3C(C)C)CN(CCCC(C)(C)O)C2)c(OC(F)F)n1 [Ex 11-66, N-(2-(difluoromethoxy)-6-methylpyridin-3-yl)-1-(4-hydroxy-4-methylpentyl)-3-(2-isopropylphenyl)azetidine-3-carboxamide]
14	Cc1ccc(NC(=O)C2(c3ccccc3C(C)C)CN(S(=O)(=O)/C=C/C(=O)O)C2)c(OC(F)F)n1 [Ex 13-21, (E)-3-((3-((2-(difluoromethoxy)-6-methylpyridin-3-yl)carbamoyl)-3-(2-isopropylphenyl)azetidin-1-yl)sulfonyl)acrylic acid]
13	CCOC(=O)C1(NC(=O)N2CC(C(=O)Nc3ccc(C)nc3OC(F)F)(c3ccccc3C(C)C)C2)CC1 [Ex 17-10, ethyl 1-(3-((2-(difluoromethoxy)-6-methylpyridin-3-yl)carbamoyl)-3-(2-isopropylphenyl)azetidine-1-carboxamido)cyclopropane-1-carboxylate]
12	Cc1ccc(NC(=O)C2(c3ccccc3C(C)C)CN(C(=O)OCC(=O)O)C2)c(OC(F)F)n1 [Ex 14-1, 2-((3-((2-(difluoromethoxy)-6-methylpyridin-3-yl)carbamoyl)-3-(2-isopropylphenyl)azetidine-1-carbonyl)oxy)acetic acid]
11	Cc1ccc(NC(=O)C2(c3ccccc3C(C)C)CCN(C(N)=O)CC2)c(OC(F)F)n1 [Ex 17-20, N4-(2-(difluoromethoxy)-6-methylpyridin-3-yl)-4-(2-isopropylphenyl)piperidine-1,4-dicarboxamide]
10	CCOC(=O)c1coc(N2CC(C(=O)Nc3ccc(C)nc3OC(F)F)(c3ccccc3C(C)C)C2)n1 [Ex 18-27, ethyl 2-(3-((2-(difluoromethoxy)-6-methylpyridin-3-yl)carbamoyl)-3-(2-isopropylphenyl)azetidin-1-yl)oxazole-4-carboxylate]
10	Cc1ccc(NC(=O)C2(c3ccccc3C(C)C)CN(C[C@@H](O)CNC(=O)CO)C2)c(OC(F)F)n1 [Ex 11-86, (S)-N-(2-(difluoromethoxy)-6-methylpyridin-3-yl)-1-(2-hydroxy-3-(2-hydroxyacetamido)propyl)-3-(2-isopropylphenyl)azetidine-3-carboxamide]
9	Cc1ccc(NC(=O)C2(c3ccccc3C(C)C)CCN(C(=O)NCCO)CC2)c(OC(F)F)n1 [Ex 17-22, N4-(2-(difluoromethoxy)-6-methylpyridin-3-yl)-N1-(2-hydroxyethyl)-4-(2-isopropylphenyl)piperidine-1,4-dicarboxamide]
8	Cc1ccc(NC(=O)C2(c3ccccc3C(C)C)CN(c3cnc(C4(C(=O)O)CC4)nc3)C2)c(OC(F)F)n1 [Ex 18-17, 1-(5-(3-((2-(difluoromethoxy)-6-methylpyridin-3-yl)carbamoyl)-3-(2-isopropylphenyl)azetidin-1-yl)pyrimidin-2-yl)cyclopropane-1-carboxylic acid]
7	Cc1ccc(NC(=O)C2(c3ccccc3C(C)C)CCNC2)c(OC(F)F)n1 (centres unmarked) [Ex 10, N-(2-(difluoromethoxy)-6-methylpyridin-3-yl)-3-(2-isopropylphenyl)pyrrolidine-3-carboxamide]
4	Cc1ccc(NC(=O)C2(c3ccccc3C(C)C)CN(S(=O)(=O)CCC(=O)O)C2)c(OC(F)F)n1 [Ex 13-5, 3-((3-((2-(difluoromethoxy)-6-methylpyridin-3-yl)carbamoyl)-3-(2-isopropylphenyl)azetidin-1-yl)sulfonyl)propanoic acid]
4	COC(=O)[C@H](C)NC(=O)N1CC(C(=O)Nc2ccc(C)nc2OC(F)F)(c2ccccc2C(C)C)C1 [Ex 17-8, methyl (3-((2-(difluoromethoxy)-6-methylpyridin-3-yl)carbamoyl)-3-(2-isopropylphenyl)azetidine-1-carbonyl)-L-alaninate]
4	Cc1ccc(NC(=O)C2(c3ccccc3C(C)C)CCN(C(=O)Cc3c[nH]nc3O)CC2)c(OC(F)F)n1 [Ex 12-27, N-(2-(difluoromethoxy)-6-methylpyridin-3-yl)-1-(2-(3-hydroxy-1H-pyrazol-4-yl)acetyl)-4-(2-isopropylphenyl)piperidine-4-carboxamide]
